Key:
[1] = system: mixed lymphocyte reaction; conditions: as described in WO 99/50388; cited from earlier work
donor heart graft = assay: Rat heterotopic heart transplantation, graft survival; assay type: in vivo; conditions: Lewis/BN rats; i.v. or s.c., daily dose up to 1 mg/kg for 1-12 weeks, e.g. 4 weeks; daily palpation of beating donor heart
Source text: 1. Rat Heterotopic Heart Transplantation
The strain combination used: Male Lewis (RT^1 haplotype) and BN (RT^1 haplotype). The animals are anaesthetised using inhalational isofluorane. […] The aorta is ligated and divided distal to the first branch and the brachiocephalic trunk is divided at the first bifurcation. The left pulmonary artery is ligated and divided and the right side divided but left open. All other vessels are dissected free, ligated and divided and the donor heart is removed into iced saline.
The recipient is prepared by dissection and cross-clamping of the infra-renal abdominal aorta and vena cava. The graft is implanted with end-to-side anastomoses, using 10/0 monofilament suture, between the donor brachiocephalic trunk and the recipient aorta and the donor right pulmonary artery to the recipient vena cava. The clamps are removed, the graft tethered retroabdominally, the abdominal contents washed with warm saline and the animal is closed and allowed to recover under a heating lamp. Graft survival is monitored by daily palpation of the beating donor heart through the abdominal wall. Rejection is considered to be complete when heart beat stops.

## Tautomycetin
[1]
  inhibition of the mixed lymphocyte reaction: inhibition of the mixed lymphocyte reaction
Donor heart graft
  graft survival: Increases of graft survival are obtained beyond treatment time

From patent publication US20030073737A1, “Tolerance induction” (priority 2001, published 2003)
